The text below walks through data of ChEMBL document CHEMBL1155600, “Constituents of Boronia pinnata” (J Nat Prod, 2000).

A short description of data set [1]: Cytotoxicity against human Raji cells assessed as cell viability at 3.2 nmol by trypan blue assay.
Data set [2] can be described thus: Cytotoxicity against human Raji cells assessed as cell viability at 32 nmol by trypan blue assay.
Data set [3] can be described thus: Cytotoxicity against human Raji cells assessed as cell viability at 16 nmol by trypan blue assay.
Data set [4] can be described thus: Cytotoxicity against human Raji cells assessed as cell viability at 0.32 nmol by trypan blue assay.

Some results are limits rather than exact numbers.

In general, viability refers to the share of living cells, or the viability signal relative to a control. Turning to `COc1ccc2c(OC)c3ccoc3nc2c1` [EVOLITRINE], the viability at 3.2 nmol in data set [1] (Raji cells) was above 80%. Moreover, the viability at 32 nmol in data set [2] (Raji cells) is 60%. In addition, the viability at 16 nmol in data set [3] (Raji cells) was above 80%. For the same compound, in data set [4] (Raji cells), the viability at 0.32 nmol is above 80%.

In the case of `COc1c2ccccc2nc2occc12` [DICTAMNINE], the viability at 3.2 nmol in data set [1] (raji) is above 80%. Besides, in data set [2] (raji), the viability at 32 nmol is 60%. Besides, in data set [3] (raji), the viability at 16 nmol is above 80%. Also, the viability at 0.32 nmol in data set [4] (raji) is above 80%.

Regarding `COc1cc(C=O)cc(OC)c1O` [SYRINGALDEHYDE], the viability at 3.2 nmol in data set [1] (Raji cells) is above 80%. Also, in data set [2] (Raji cells), the viability at 32 nmol turned out to be 60%. Besides, the viability at 16 nmol in data set [3] (Raji cells) is above 80%. For the same compound, in data set [4] (Raji cells), the viability at 0.32 nmol was above 80%.

In the case of `COc1cc2ccc(=O)oc2c2c1OC(C)(C)C=C2`, in data set [1] (Raji cells), the viability at 3.2 nmol is above 80%. The viability at 32 nmol in data set [2] (Raji cells) came out at 60%. For the same compound, the viability at 16 nmol in data set [3] (Raji cells) was above 80%. For the same compound, in data set [4] (Raji cells), the viability at 0.32 nmol was above 80%.

Take `COc1ccc2c(OC)c(CC=C(C)C)c(=O)[nH]c2c1OC` [PRESKIMMIANINE]: the viability at 3.2 nmol in data set [1] (Raji cells) was above 80%. The viability at 32 nmol in data set [2] (Raji cells) is 60%. Further, in data set [3] (Raji cells), the viability at 16 nmol is above 80%. For the same compound, in data set [4] (Raji cells), the viability at 0.32 nmol is above 80%.

Turning to `O=C(O)/C=C/c1ccc(O)cc1` [COUMARIC ACID], the viability at 3.2 nmol in data set [1] (Raji cells) is above 80%. The viability at 32 nmol in data set [2] (Raji cells) is 60%. The viability at 16 nmol in data set [3] (Raji cells) is above 80%. Further, the viability at 0.32 nmol in data set [4] (Raji cells) is above 80%.

With `CC(C)=CCc1cc(/C=C/C=O)ccc1O`, the viability at 3.2 nmol in data set [1] (Raji cells) is above 80%. For the same compound, in data set [2] (Raji cells), the viability at 32 nmol stood at 60%. The viability at 16 nmol in data set [3] (Raji cells) is above 80%. The viability at 0.32 nmol in data set [4] (Raji cells) is above 80%.

Turning to `OC/C=C/c1ccc2c(c1)OCO2`, the viability at 3.2 nmol in data set [1] (Raji cells) is above 80%. Moreover, the viability at 32 nmol in data set [2] (Raji cells) came out at 70%. The viability at 16 nmol in data set [3] (Raji cells) was above 80%. For the same compound, the viability at 0.32 nmol in data set [4] (Raji cells) was above 80%.

Turning to `COc1cc(/C=C/C(=O)O)ccc1OCC=C(C)C` [BOROPINIC ACID], the viability at 3.2 nmol in data set [1] (Raji cells) was above 80%. Further, the viability at 32 nmol in data set [2] (Raji cells) was 70%. For the same compound, in data set [3] (Raji cells), the viability at 16 nmol was above 80%. Besides, the viability at 0.32 nmol in data set [4] (Raji cells) is above 80%.

As for `COc1cc(=O)n(C)c2c(OC)cccc12`, the viability at 3.2 nmol in data set [1] (Raji cells) was above 80%. In addition, the viability at 32 nmol in data set [2] (Raji cells) stood at 60%. Moreover, the viability at 16 nmol in data set [3] (Raji cells) was above 80%. For the same compound, in data set [4] (Raji cells), the viability at 0.32 nmol is above 80%.
